US10213418B2, “Therapeutic uses of berberine formulations” (TWi Biotechnology, Inc., priority 2013, dated 2019)
Read-outs that look alike come from different tables or passages of the source.

Legend:
[1] = patients on therapy; cited from earlier work
[2] = Partition coefficient in an octanol-water system; type: physicochemical; details: berberine alone
Solubility = type: physicochemical

Compound: Nc1cc(C(F)(F)F)c(-c2cc(N3CCOCC3)nc(N3CCOCC3)n2)cn1 [BKM-120]
- maculopapular rash described [1]: 37 % of patients

Compound: NC1(c2ccc(-c3nc4ccn5c(=O)[nH]nc5c4cc3-c3ccccc3)cc2)CCC1 [MK2206]
- maculopapular rash described [1]: 52 % of patients

Compound: CN(C)C/C=C/C(=O)Nc1cc2c(Nc3ccc(F)c(Cl)c3)ncnc2cc1O[C@H]1CCOC1 [afatinib]
- papulopustular rash reported [1]: 90 % of patients

Compound: COc1ccc2cc3[n+](cc2c1OC)CCc1cc2c(cc1-3)OCO2 [berberine, 5,6-dihydro-9,10-dimethoxybenzo(g)-1,3-benzodioxolo (5,6-a) quinolizinium]
- logP [2]: 0.0294
- solubility (Solubility; aqueous berberine solubility): 1570 µg/mL
- solubility (Solubility; medium containing SDS (sodium dodecyl sulfate), aqueous with cosolvent or surfactant or cyclodextrin, pH of between 4 and 7, read-out: berberine solubility in the presence of SDS): 10 to 60 µg/mL
- solubility (Solubility; water, aqueous berberine solubility, read-out: solubility): 1570 µg/mL

Compound: Cn1cnc2c(F)c(Nc3ccc(Br)cc3Cl)c(C(=O)NOCCO)cc21 [selumetinib]
- papulopustular rash reported [1]: 93 % of patients

Compound: ipilimumab: anti-CTLA-4 inhibitor
- maculopapular rash described [1]: 33 % of patients

Compound: nivolumab: anti-PD-1 inhibitor
- maculopapular rash described [1]: 26 % of patients
